{
  "source": "patent US9254334B2",
  "about": "“Polyamine derivatives” (CLSN Laboratories, Inc., priority 2009, dated 2016)",
  "key": {"VEGF protein": {"system": "VEGF protein", "assay": "In vitro transfection of simVEGF siRNA complexes, supernatant mVEGF protein knockdown", "type": "cell-based, murine", "conditions": "SCCVII cells, 0.5 μg complexed simVEGF siRNA, 6 h + 40 h", "experimental": "(§1) The transfection activity of siRNA and dioleoyl monoamine delivery reagent conjugate complexes is determined in vitro. Transfection complexes containing simVEGF siRNA construct are prepared by methods previously described in Example 9. SCCVII cells (0.5×10^5 cells/well) are seeded into 24-well tissue culture plates in 10% FBS. Each well is incubated for 6 hours with 0.5 μg of complexed siRNA in a total volume of 250 μL of DMEM. When the incubation period is concluded, 250 μL of DMEM supplemented with 20% FBS is added to the transfected cells and incubated further for another 40 hours. At the end of the incubation period, supernatant mVEGF protein determinations are made.\nas §1, with “siRNA complexes with” for “siRNA and”, “monoamine (Example 3) or methyl-dioleoyl monoamine (Example 3A)” for “monoamine”, “delivery reagents” for “delivery reagent conjugate complexes”, “previously described.” for “previously described in Example 9.”, “are made as described above.” for “are made.”"}, "[1]": {"system": "Caveolin-1 (Cav-1) transcript", "assay": "Caveolin-1 transcript knockdown in lung and liver after single iv injection of formulated siRNA (qRTPCR)", "type": "in vivo, mice", "conditions": "100 μg siRNA iv, 10:1 ratio, 48 h, normalized to β-actin, vs non-targeting siRNA control", "experimental": "A total of 100 μg siRNA is injected in a final volume of 200 μL (0.5 mg/mL). […] Results (FIG. 3) indicate a significant decrease in target specific Cav-1 transcript levels in both lungs (76% knockdown) and livers (62% knockdown). For each group, n=5."}, "VEGF transcript": {"system": "VEGF transcript", "assay": "VEGF transcript knockdown in subcutaneous tumors after intratumoral injection of formulated siVEGF", "type": "in vivo, mice", "conditions": "VEGF siRNA 5:1 N:P, 0.3 mg/mL, 30 μl intratumoral, 48 h after second injection", "experimental": "(§2) In this example tumors were implanted into the hind flanks of […] by injecting 5×10^5 squamous cell carcinoma cells. Tumors were allowed to grow until they reached a size of […]. Tumors were then injected with a commercially available siRNA targeting VEGF that was formulated with dioleoyl monoamine at a 5:1 N:P ratio or with a similarly formulated non-silencing control siRNA. The final concentration of siRNA was 0.3 mg/mL. A total of 30 μl of the formulated siRNA solution was injected into tumors and injections were repeated every 3-4 days for a total of 6 injections. The tumors from some animals were harvested 48 hours after the second formulated siRNA injection for transcript analysis."}, "[2]": {"system": "squamous cell carcinoma tumors", "assay": "Tumor growth inhibition and survival after intratumoral formulated VEGF siRNA", "type": "in vivo, mice", "experimental": "as §2"}, "[3]": {"assay": "Controlled release of complexed Cav-1 siRNA from crosslinked alginate gel", "type": "physicochemical", "experimental": "siRNA complexed with dioleoyl monoamine is formulated as described in Example 39 containing 50 μg Cav-1 siRNA and 1.4 μg dioleoyl monoamine in a volume of 50 μL. Sodium alginate (Type A) is dissolved in water to give a 2% solution. An alginate solution (100 μL) is added to a single well of a 96-well plate followed by 50 μL of the dioleoyl monoamine/Cav-siRNA solution. After thorough mixing, 50 μL of a 0.68 M CaCl2 solution is added to the previous mixture to crosslink the gel. One hundred μL of water or 0.1 M EDTA (which serves to break down the gel by complexing the Ca^2+ ions) is then added to ensure complete submersion of the gel in aqueous solution. At the prescribed time points, the supernatants are removed (200 μL) and replaced with fresh 200 μL water or 0.1 M EDTA. After 84 hours, all collected samples are assayed for Cav-1 siRNA content using qRT-PCR. The siRNA amounts collected at each time point are summed in order to determine amount released over time. In samples that have the addition of EDTA, 100% of the loaded dioleoyl monoamine formulated siRNA is released after 84 hours."}, "[4]": {"conditions": "one week after last of 6 intratumoral injections"}},
  "data": [
    {"smiles": "CCCCCCCC/C=C\\CCCCCCCC(=O)NCCN(CCN)CCNC(=O)CCCCCCC/C=C\\CCCCCCCC", "note": "[dioleoyl monoamine, N,N′-dioleoyl tris(aminoethyl)amine]", "values": [
      {"measurement": "knockdown of VEGF protein", "setting": "VEGF protein", "result": "~95", "unit": "%"},
      {"measurement": "Cav-1 transcript knockdown, livers", "setting": "[1]", "result": 62, "unit": "%"},
      {"measurement": "Cav-1 transcript knockdown, lungs", "setting": "[1]", "result": 76, "unit": "%"},
      {"measurement": "decrease in VEGF transcript relative to the non-silencing control group", "setting": "VEGF transcript", "result": 32, "unit": "%"},
      {"measurement": "improvement in median survival relative to non-silencing control or untreated groups", "setting": "[2]; VEGF siRNA intratumoral, 6 injections", "result": 13, "unit": "%"},
      {"measurement": "decrease in tumor volume relative to non-silencing siRNA", "setting": "[2]; [4]", "result": 31, "unit": "%"},
      {"measurement": "decrease in tumor volume relative to untreated control animals", "setting": "[2]; [4]", "result": 57, "unit": "%"},
      {"measurement": "loaded siRNA released from alginate gel", "setting": "[3]; with 0.1 M EDTA, after 84 hours", "result": 100, "unit": "%"},
      {"measurement": "loaded siRNA released from alginate gel", "setting": "[3]; without EDTA (water), by 84 hours", "result": "< 20", "unit": "%"}
    ]}
  ]
}
